From patent publication US20100298430A1, “PROPHYLACTIC ANTISTRESS AGENT” (KAO CORPORATION, priority 2005, published 2010)

What was measured:
[1] = test system: fatigue rats; assay: Weighted swimming test in water immersion central fatigue model rats, administration in drinking water; format: in vivo, SD rats; conditions: 0.25% (W/V) in drinking water (370 mg/kg/day), oral; 3 days water immersion; swim on the 4th day with weight 8% of body weight; vs distilled water control
Description: A test sample or distilled water used as a control was administered in the form of drinking water to SD rats (male, 6-week-old, n=3 to 6). Thereafter, the rats were bred for 3 days in a cage wherein the water depth had been set at 1.5 cm (23±1° C.) (1 rat/1 cage), so as to produce fatigue rats. It is to be noted that the water in such a cage was exchanged with fresh one every day. At the same time, rats, which had been bred on a common bedding, were defined as normal rats. After completion of the breeding for 3 days, a weight that was 8% of the body weight was attached to the tail portion of each rat on the 4th day, and the rat was then allowed to swim in water of 23° C. The time required until the nose was submerged in water for 10 or more seconds was measured, and the thus measured time was evaluated as a fatigue level caused by central fatigue (chronic fatigue). This model has been known as a central fatigue model (Non-Patent Document 1 and Neurosci. Lett. 352 (2003), 159-162). For the test group, 0.25% (W/V) chlorogenic acid (370 mg/kg/day) was used. For the control group, distilled water was used.

[2] = test system: fatigue rats; assay: Weighted swimming test in water immersion load fatigue rats (stress fatigue), intraperitoneal administration; format: in vivo, SD rats; conditions: CQA 300 mg/kg intraperitoneally once a day for 5 days; swim on the 6th day with weight 8% of body weight, water of 23° C.; vs normal saline control
Description: SD rats (male, 7-week-old, n=4 to 12) were bred for 5 days in a cage wherein the water depth had been set at 1.5 cm (23±1° C.) (1 rat/1 cage), so as to produce fatigue rats. It is to be noted that the water in such a cage was exchanged with fresh one every day. From the first day, a test sample or a normal saline solution used as a control was intraperitoneally administered to the rats once a day. At the same time, rats, which had been bred on a common bedding, were defined as normal rats, and from the first day, a normal saline solution was intraperitoneally administered to them once a day. After completion of the breeding for 5 days, a weight that was 8% of the body weight was attached to the tail portion of each rat on the 6th day, and the rat was then allowed to swim in water of 23° C. The time required until the nose was submerged in water for 10 or more seconds was measured, and the thus measured time was evaluated as a fatigue level caused by stress. For the test group, chlorogenic acid (CQA 300 mg/kg) was used. For the control group, a normal saline solution was used.

SMILES: O=C(/C=C/c1ccc(O)c(O)c1)O[C@@H]1C[C@](O)(C(=O)O)C[C@@H](O)[C@H]1O [chlorogenic acid]
- fatigue level caused by central fatigue (chronic fatigue) (swimming time until the nose was submerged in water for 10 or more seconds) [1]: attenuated
- fatigue level caused by stress (swimming time until the nose was submerged in water for 10 or more seconds) [2]: attenuated
